Assay results taken from ChEMBL document CHEMBL1132059, “Antitumor agents 187: synthesis and cytotoxicity of substituted 8,8-dimethyl-2H,8H-pyrano[6,5-h]quinoline-2-one and related compounds” (1999).
Values after ≈ are worked out from the molar mass of the structure shown. Active and inactive are the calls of the source. The calls are words filed in the database; no cut-off is given here.

Legend:
1A9 = assay: Cytotoxic activity against human ovarian cancer (1A9) cell line; type: functional; settings: read-out: ED50 (the source's name)
A549 = assay: Cytotoxic activity against human lung carcinoma (A-549) cell line; type: functional; settings: read-out: ED50 (the source's name)
CAKI-1 [1] = assay: Cytotoxic activity against human renal cancer (CAKI-1) cell line; type: functional; settings: read-out: ED50 (the source's name)
HCT-8 [2] = assay: Cytotoxic activity against human ileocecal carcinoma (HCT-8) cell line; type: functional; settings: read-out: ED50 (the source's name)
KB = assay: Cytotoxic activity against human epidermoid carcinoma of the nasopharynx (KB) cell line; type: functional; settings: read-out: ED50 (the source's name)
MCF7 = assay: Cytotoxic activity against human breast cancer (MCF-7) cell line; type: functional; settings: read-out: ED50 (the source's name)
CAKI-1 [3] = assay: Cytotoxic activity against human renal cancer (CAKI-1) cell line; NA=Not active; type: functional, cell-based
HCT-8 [4] = assay: Cytotoxic activity against human ileocecal carcinoma (HCT-8) cell line; NA=Not active; type: functional, cell-based
CAKI-1 [5] = assay: Compound was tested for in vitro growth inhibition of human […] cancer CAKI-1 cell line; type: functional
MDA-MB-435 = assay: Compound was tested for in vitro growth inhibition of human breast cancer MDA-MB-435 cell line; type: functional
NCI-H226 = assay: Compound was tested for in vitro growth inhibition of human non-small cell lung cancer cell line NCI-H226; type: functional
OVCAR-3 = assay: Compound was tested for in vitro growth inhibition of human ovarian cancer OVCAR-3 cell line; type: functional
SF-295 = assay: Compound was tested for in vitro growth inhibition of human […] SF-295 cell line; type: functional
SK-MEL-28 = assay: Compound was tested for in vitro growth inhibition of human melanoma SK-MEL-28 cell line; type: functional
PD-145 = assay: Compound was tested for in vitro growth inhibition of human prostate cancer PD-145 cell line; type: functional
HL-60 = assay: Compound was tested for in vitro growth inhibition of human leukemia cell line HL60; type: functional
COLO 205 = assay: Compound was tested for in vitro growth inhibition of human colon cancer COLO 205 cell line; type: functional
HCT-116 = assay: Compound was tested for in vitro growth inhibition of human colon cancer HCT116 cell line; type: functional

GI50 (MDA-MB-435) [µM]	GI50 (NCI-H226) [µM]	GI50 (OVCAR-3) [µM]	GI50 (SK-MEL-28) [µM]	GI50 (HL-60) [µM]	GI50 (COLO 205) [µM]	GI50 (HCT-116) [µM]	Compound	EC50 (1A9) [µg/mL]	EC50 (A549) [µg/mL]	EC50 (CAKI-1 [1]) [µg/mL]	EC50 (HCT-8 [2]) [µg/mL]	EC50 (KB) [µg/mL]	EC50 (MCF7) [µg/mL]	ED50 (CAKI-1 [3])	ED50 (HCT-8 [4])	GI50 (CAKI-1 [5]) [µM]	GI50 (SF-295) [µM]	GI50 (PD-145) [µM]
							CC1(C)C=Cc2c(ccc3c(-c4ccccc4)cc(O)nc23)O1	10 (≈ 33 µM)	36.3 (≈ 120 µM)	> 40	28 (≈ 92.3 µM)	> 40	30 (≈ 98.9 µM)					
							CCCc1cc(O)nc2c3c(ccc12)OC(C)(C)C=C3	> 40	> 40			> 40	> 40	inactive	inactive			
							Cc1cc(S)nc2c3c(ccc12)OC(C)(C)C=C3	12 (≈ 46.6 µM)	30.3 (≈ 118 µM)		28.8 (≈ 112 µM)	23 (≈ 89.4 µM)	13.8 (≈ 53.6 µM)	inactive				
							Cc1cc2c(C)c(C)c(O)nc2c2c1OC(C)(C)C=C2		41 (≈ 152 µM)	43 (≈ 160 µM)	41 (≈ 152 µM)	37 (≈ 137 µM)	38 (≈ 141 µM)					
							CC1(C)C=Cc2c(ccc3ccc(O)nc23)O1	5.8 (≈ 25.5 µM)	18 (≈ 79.2 µM)	> 40	19.3 (≈ 84.9 µM)	13.1 (≈ 57.6 µM)	14.7 (≈ 64.7 µM)					
							Cc1cc(=O)n(C(=O)OC(C)(C)C)c2c3c(ccc12)OC(C)(C)C=C3		4.3 (≈ 12.6 µM)	4.5 (≈ 13.2 µM)	3.6 (≈ 10.5 µM)	2.5 (≈ 7.32 µM)	2.4 (≈ 7.03 µM)					
							Cc1c(O)nc2c3c(ccc2c1C)OC(C)(C)C=C3		25 (≈ 97.9 µM)	35.5 (≈ 139 µM)	32 (≈ 125 µM)	23 (≈ 90.1 µM)	19 (≈ 74.4 µM)					
1.74	> 100	6.03	> 100	0.427	2.75	4.9	Cc1cc(O)nc2c3c(ccc12)OC(C)(C)C=C3		2.2 (≈ 9.12 µM)	2.5 (≈ 10.4 µM)	1.7 (≈ 7.05 µM)	1.6 (≈ 6.63 µM)	1.7 (≈ 7.05 µM)			6.17	30.2	3.63
